How the values were obtained:
[1] = cited from earlier work
[2] = parent dye free in solution; cited from earlier work
[3] = tested on: duplex nucleic acid substrates bearing single abasic, single NCP, and tandem NCP sites; experiment: Fluorogenic probe library screen, overall; type: binding; conditions: 2 μM probe, 2 μM duplex
Procedure: (§1) Fluorescence Measurements. Samples for screening were prepared as solutions with 50 mM HEPES (pH 7.5), 100 mM NaCl, 2 μM dsDNA/dsRNA, 2 μM probe (4 μM probe with tandem mismatch). Prior to use, nucleic acids were annealed (95° C./5 min, slow cool to RT over 2 h) to pre-form the duplex. Prepared samples were incubated at room temperature for 30 min before measuring fluorescence (Thermo Fisher Nanodrop 3300, excitation/emission=470/522 nm). For each measurement, 2 μl of sample was applied to the center of the nanodrop probe. All fluorescence values are the average of triplicate measurements, starting from fresh sample preparation. Error bars indicate standard deviation. The relative intensity (turn-on) was calculated using the equation below.

[4] = tested on: tandem NCP sites (2×2 internal bulges) in dsRNA; experiment: Tandem NCP RNA library screen; type: binding; conditions: 4 μM probe, 2 μM RNA duplex
Procedure: as §1

Structure (SMILES): Nc1nc(=O)[nH]c(=O)[nH]1 [ammelide]
- pKa [1]: ~ 6.9

Structure (SMILES): CN1C(=Cc2cc[n+](C)c3ccccc23)Sc2ccccc21 [thiazole orange]
- quantum yield in solution [2]: ~ 10^−4

Structure (SMILES): Oc1nc(O)nc(O)n1 [CA]
- binding in the abasic or single NCP screens [3]: did not show any binding
- targeting of AG/CU internal bulge [4]: could be targeted

Structure (SMILES): O=c1[nH]c(=O)[nH]c(=O)[nH]1 [cyanuric acid]
- pKa [1]: ~ 6.9
